Data on 20 compounds can be found in ChEMBL document CHEMBL1122287, “N2-1H-benzimidazol-2-yl-N4-phenyl-2,4-pyrimidinediamines and N2-1H-benzimidazol-2-yl-5,6,7,8-tetrahydro-N4-phenyl-2,4-quinazolinediamines as potential antifilarial agents” (1983).

Test [1] relates to Litomosoides carinii. Briefly: Antifilarial activity against Litomosoides carinii adults. It is filed as functional. On the set-up: concentration or dose not given beside the values.
Test [2] has as its system Litomosoides carinii. Briefly: Antifilarial activity against circulating Litomosoides carinii microfilaria. It is filed as functional. More on the design: concentration or dose not given beside the values.
The next test deals with Brugia pahangi. Nature of the test: Antifilarial activity against Brugia pahangi in jirds was determined after subcutaneous administration of 100 mg/kg/day. It is filed as functional, organism-based.

Take `CCN(CC)Cc1cc(Nc2cc(C(F)(F)F)nc(Nc3nc4cc(C(=O)c5ccccc5)ccc4[nH]3)n2)ccc1O`: the results for the Reduction with Litomosoides carinii [1], with Litomosoides carinii [2] and in the test on Brugia pahangi were less than 60%, less than 90% and “Not significant”, respectively.
Consider `CCNCc1cc(Nc2nc(Nc3nc4cc(Cl)c(Cl)cc4[nH]3)nc3c2CCCC3)ccc1OC`, for which the Reduction with Litomosoides carinii [1] is less than 60%; with Litomosoides carinii [2] it was less than 90%; in the test on Brugia pahangi, “Not significant”.
The corresponding values for `CCNCc1cc(Nc2cc(C)nc(Nc3nc4cc(Cl)c(Cl)cc4[nH]3)n2)ccc1OC` are less than 60%, less than 90% and “Not significant”.
Turning to `Cc1cc(Nc2ccc(O)c(CN3CCN(C)CC3)c2)nc(Nc2nc3cc(Cl)c(Cl)cc3[nH]2)n1`, the Reduction with Litomosoides carinii [1] was less than 60%; with Litomosoides carinii [2] it was less than 90%; with Brugia pahangi it was “Not significant”.
`CCOC(=O)N1CCN(Cc2cc(Nc3cc(C(F)(F)F)nc(Nc4nc5cc(Cl)c(Cl)cc5[nH]4)n3)cc(-c3ccccc3)c2O)CC1`: the Reduction with Litomosoides carinii [1] was less than 60%; with Litomosoides carinii [2], less than 90%; with Brugia pahangi, “Not significant”.
On to `CCNCc1cc(Nc2cc(C(F)(F)F)nc(Nc3nc4cc(C(=O)c5ccccc5)ccc4[nH]3)n2)ccc1OC`, for which the Reduction with Litomosoides carinii [1] is less than 60%; with Litomosoides carinii [2] it was less than 90%; with Brugia pahangi, “Not significant”.
Turning to `CCOc1ccc(Nc2nc(Nc3nc4cc(Cl)c(Cl)cc4[nH]3)nc3c2CCCC3)cc1CN(CC)CC`, the Reduction with Litomosoides carinii [1] is less than 60%; in the test on Litomosoides carinii [2], less than 90%; with Brugia pahangi it was “Not significant”.
The matching figures for `CCN(CC)Cc1cc(Nc2cc(-c3ccccc3)nc(Nc3nc4cc(Cl)c(Cl)cc4[nH]3)n2)ccc1O`: less than 60%, less than 90% and “Not significant”.
As to `CCN(CC)Cc1cc(Nc2cc(C(F)(F)F)nc(Nc3nc4cc(C(=O)c5ccccc5)ccc4[nH]3)n2)ccc1OC`, the Reduction in the test on Litomosoides carinii [1] is less than 60%; in the test with Litomosoides carinii [2] it was less than 90%; with Brugia pahangi it was “Not significant”.
Regarding `CN1CCN(Cc2cc(Nc3cc(C(F)(F)F)nc(Nc4nc5cc(C(=O)c6ccccc6)ccc5[nH]4)n3)ccc2O)CC1`, the Reduction is less than 60% with Litomosoides carinii [1], less than 90% in the test on Litomosoides carinii [2] and “Not significant” in the test on Brugia pahangi.
Consider `CCN(CC)Cc1cc(Nc2nc(Nc3nc4cc(Cl)c(Cl)cc4[nH]3)nc3c2CCCC3)ccc1O`, for which the Reduction in the test with Litomosoides carinii [1] was less than 60%; with Litomosoides carinii [2], less than 90%; in the test on Brugia pahangi it was “Not significant”.
As to `CN1CCN(Cc2cc(Nc3nc(Nc4nc5cc(Cl)c(Cl)cc5[nH]4)nc4c3CCCC4)ccc2O)CC1`, the Reduction in the test on Litomosoides carinii [1] was less than 60%; with Litomosoides carinii [2], less than 90%; with Brugia pahangi, “Not significant”.
Consider `CCOc1ccc(Nc2cc(C)nc(Nc3nc4cc(Cl)c(Cl)cc4[nH]3)n2)cc1CN(CC)CC`, for which the Reduction in the test on Litomosoides carinii [1] is less than 60%; in the test on Litomosoides carinii [2], less than 90%; with Brugia pahangi, “Not significant”.
The corresponding values for `CCN(CC)Cc1cc(Nc2cc(C(F)(F)F)nc(Nc3nc4cc(Cl)c(Cl)cc4[nH]3)n2)ccc1OC` are less than 60%, less than 90% and “Not significant”.
Consider `CNCc1cc(Nc2cc(C)nc(Nc3nc4cc(Cl)c(Cl)cc4[nH]3)n2)ccc1O`, for which the Reduction in the test with Litomosoides carinii [1] is less than 60%; with Litomosoides carinii [2], less than 90%; in the test with Brugia pahangi it was “Not significant”.
The matching figures for `CCN(CC)Cc1cc(Nc2cc(C)nc(Nc3nc4cc(Cl)c(Cl)cc4[nH]3)n2)ccc1OC`: less than 60%, less than 90% and “Not significant”.
As for `CCN(CC)Cc1cc(Nc2cc(C)nc(Nc3nc4cc(Cl)c(Cl)cc4[nH]3)n2)ccc1O`, the Reduction in the test with Litomosoides carinii [1] is less than 60%; with Litomosoides carinii [2], less than 90%; in the test with Brugia pahangi, “Not significant”.
Consider `Cc1cc(Nc2ccc(O)c(CN3CCCC3)c2)nc(Nc2nc3cc(Cl)c(Cl)cc3[nH]2)n1`, for which the Reduction with Litomosoides carinii [1] is less than 60%; in the test on Litomosoides carinii [2], less than 90%; with Brugia pahangi it was “Not significant”.
On to `CCN(CC)Cc1cc(Nc2cc(C(F)(F)F)nc(Nc3nc4cc(Cl)c(Cl)cc4[nH]3)n2)cc(-c2ccccc2)c1O`, for which the Reduction in the test on Litomosoides carinii [1] was less than 60%; in the test on Litomosoides carinii [2] it was less than 90%; in the test on Brugia pahangi, “Not significant”.
With `CCN(CC)Cc1cc(Nc2cc(C(F)(F)F)nc(Nc3nc4cc(Cl)c(Cl)cc4[nH]3)n2)ccc1O`, the Reduction with Litomosoides carinii [1] is less than 60%; with Litomosoides carinii [2], less than 90%; in the test with Brugia pahangi it was “Not significant”.
